Laboratory results reported in patent US20170266157A1, “METHODS FOR WOUND HEALING AND SCAR PREVENTION” (priority 2016, published 2017).

Columns and labels:
[1] = tested on: resection site of a periauricular basal cell carcinoma; experiment: Healing of full-thickness resection site of periauricular basal cell carcinoma, topical treatment; assay type: in vivo, person
Excerpt: A person underwent a full-thickness resection of a basal cell carcinoma on an outpatient basis. See FIG. 1, panel a. showing wound during operation and panel b. showing wound immediately post operation. RT175 formulated in an Amantle™ cream base was applied immediately post-operatively, and then daily thereafter for 12 days. […] An archival photo of a scar biopsy is included for comparison.

[2] = tested on: ED&C sites of the supradeltoid regions of the upper arm; experiment: Healing after electrodissection and curettage (ED&C) of the upper arm, topical treatment; assay type: in vivo, person
Procedure: The supradeltoid regions of the left and right upper arm were treated by electrodissection and curettage (“ED&C”) for treatment of basal cell […]. Beginning on the day of surgery, and daily thereafter the sites were treated with RT175 in an Amantle™ cream base, or with the Amantle™ cream base alone. […] See FIG. 2, Day 20, bottom panel. In contrast, 68 days after the procedure the vehicle treated site was still not fully closed. Six-months following the procedure, the RT175-treated site was scar-free, see FIG. 3, panel a., while the vehicle-treated site has a pronounced, hypopigmented stellate shaped scar, see FIG. 3, panel b.

[3] = tested on: stem cell markers Oct-4 and Sox-2; experiment: Stem cell marker immunohistology of treated 5 mm dermal biopsy punch sites; assay type: in vivo, person; conditions: RT175 in Amantle cream base daily for 30 days, re-biopsy, 10 micron sections
Procedure: A person underwent bilateral 5 millimeter (“mm”) dermal biopsy punches in the forearm, 5 centimeter (“cm”) distal to the antecubital space. Treatment with RT175 in an Amantle™ cream base, or with the Amantle™ cream base alone was begun immediately upon hemostasis. The skin was treated daily for 30 days, whereupon the sites were re-biopsied and the tissue processed for immunohistology. 10 micron thick sections were stained for the expression of the stem cell markers Oct-4, see FIG. 4, panels a. and c., or Sox-2, see FIG. 4, panels b. and d. […] Not to be held to a particular theory, the presence of stem cells markers in RT175 treated wound sites indicates active stem cells. The presence of these stem cells in the wound site causes rapid and proper wound healing without the formation of scar tissue. In turn, the absence of stem cells from wound sites allows the formation of scar tissue.

[4] = molecular target: T1, FK506 binding protein 4 (FKBP52) (Homo sapiens, UniProt Q02790); conditions: cited from earlier work
T1 sequence (Q02790 1-459): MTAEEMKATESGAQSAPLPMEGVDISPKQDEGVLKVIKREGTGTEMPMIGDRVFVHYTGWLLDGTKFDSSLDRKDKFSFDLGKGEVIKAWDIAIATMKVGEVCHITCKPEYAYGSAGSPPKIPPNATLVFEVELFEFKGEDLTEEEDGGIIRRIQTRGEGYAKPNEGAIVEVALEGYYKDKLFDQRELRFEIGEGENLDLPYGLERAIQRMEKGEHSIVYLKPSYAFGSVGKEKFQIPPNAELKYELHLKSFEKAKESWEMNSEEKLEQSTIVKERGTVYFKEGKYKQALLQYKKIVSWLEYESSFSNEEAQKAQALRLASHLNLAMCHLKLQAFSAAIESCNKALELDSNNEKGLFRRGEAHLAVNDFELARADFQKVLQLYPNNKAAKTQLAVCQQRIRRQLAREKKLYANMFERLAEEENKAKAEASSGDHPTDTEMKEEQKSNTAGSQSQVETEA

FKBP52 = molecular target: T2, FKBP52 (Homo sapiens, UniProt Q02790); conditions: treatment of fibroblasts for 2 hours; cited from earlier work
T2 construct: endogenous in cells
T2 sequence (Q02790 1-459): T1 sequence (Q02790 1-459)

[5] = tested on: ear punch-hole wound (mouse pinna); experiment: Punch-hole biopsy of the ear of mice, topical treatment; assay type: in vivo, ICR breeder mice; conditions: topical once daily, within 21 days of punch-hole biopsy; 2.4 μg RT1061, 80 μg FK506
Procedure: Retired ICR breeder mice of both sexes with weight between 45 and 50 grams were subject to single bilateral punch-hole biopsies. The animals were then randomly assigned to one of three groups to receive either 2.4 μg of RT1061, 80 μg FK506 or a vehicle control. RT1061, FK506 or vehicle control was applied topically to both the ventral and dorsal surface of the ear, once each day including immediately after biopsy.
All wounds were photographed using a Nikon CoolPix 990 digital camera. Each image included a metric ruler that had been approximated to the wound. The images of the wounds were opened in Adobe Photoshop, and using the “measurement tool”, the length, in pixels, of 3 cm along the ruler's straight edge was determined. That number was used to calculate a conversion factor that was then used to normalize each photograph. The conversion factor was calculated as 100/length. To normalize the area of the lesion in a photograph, the […] using the “magic wand” tool, and the number of voxels were multiplied by the conversion factor, thus generating the equation: area=volume (voxels)*conversion factor. The area at t=0 was defined as 100%. […] The mean area of the initial hole was calculated as average […] of the punches at t=0 (determined by using an outline of the hole measured against the ruler, using Adobe Photoshop) times π. […]

[6] = tested on: dermabrasion lesions of dorsal skin; experiment: Dermabrasion lesions of dorsal skin of mice, topical treatment; assay type: in vivo, ICR breeder mice; conditions: 5 μL of 100 nanomolar RT1061 topical once daily, 10 days after rasping
Procedure: Retired ICR breeder mice of both sexes with weight between 45 and 50 grams were shaved and rasped to induce dermabrasion lesions. The animals were then randomly assigned (5 per treatment arm) to one of two groups to receive either 5 μL of 100 nanomolar RT1061 or a vehicle control. RT1061 or vehicle control was applied topically to the lesion site once each day including immediately after dermabrasion.

Row | SMILES | scar observed, skin appearance ([1]; 12th post-operative day, RT175 in Amantle cream base daily) | wound closed and largely healed by ([1]; RT175 in Amantle cream base, applied immediately post-operatively then daily for 12 days) | scar tissue by biopsy ([1]; biopsy 6 months later) | treated site fully closed by ([2]; RT175 in Amantle cream base daily, vehicle site still not fully closed at 68 days) | scar at treated site ([2]; six months following the procedure) | expression of stem cell markers Oct-4 and Sox-2 in treated tissue [3] | binding affinity to FKBP52 [4] | translocation of FKBP52 (FKBP52) | regeneration of mouse pinna tissue (ear-hole closure) [5] | hair growth [6] | regeneration of rasped skin [6]
1 | CCC(C)(C)C(=O)C(=O)N1CCC[C@H]1C(=O)O [RT175] | little to no scar | ≤ 7 post-operative day | absence of scar tissue | ≤ 20 post-operative day | scar-free | expressed both stem cell markers | high affinity | translocation of FKBP52 to the nucleus | – | – | –
2 | CCC(C)(C)C(=O)C(=O)N1CCCC1Cc1ccccc1 (centres unmarked) [RT1061, 1-(2-benzylpyrrolidin-1-yl)-3,3-dimethylpentane-1,2-dione] | – | – | – | – | – | – | – | – | almost complete regeneration of the mouse pinna | rapid hair growth | rapid regeneration of rasped skin
